Among the data in ChEMBL document CHEMBL1201862, “PubChem BioAssay data set” (2004) are IC50 values, retold here.

Activity calls are given as the source filed them. Cut-off read from the data, not from the text of the source: actives have a measured IC50 and inactives only a lower limit.

By IC50 is commonly meant the concentration at which inhibition is half-maximal.

Chain of Envelope glycoprotein gp160 (Q6QLK5 whole entry, the tested form may be a part): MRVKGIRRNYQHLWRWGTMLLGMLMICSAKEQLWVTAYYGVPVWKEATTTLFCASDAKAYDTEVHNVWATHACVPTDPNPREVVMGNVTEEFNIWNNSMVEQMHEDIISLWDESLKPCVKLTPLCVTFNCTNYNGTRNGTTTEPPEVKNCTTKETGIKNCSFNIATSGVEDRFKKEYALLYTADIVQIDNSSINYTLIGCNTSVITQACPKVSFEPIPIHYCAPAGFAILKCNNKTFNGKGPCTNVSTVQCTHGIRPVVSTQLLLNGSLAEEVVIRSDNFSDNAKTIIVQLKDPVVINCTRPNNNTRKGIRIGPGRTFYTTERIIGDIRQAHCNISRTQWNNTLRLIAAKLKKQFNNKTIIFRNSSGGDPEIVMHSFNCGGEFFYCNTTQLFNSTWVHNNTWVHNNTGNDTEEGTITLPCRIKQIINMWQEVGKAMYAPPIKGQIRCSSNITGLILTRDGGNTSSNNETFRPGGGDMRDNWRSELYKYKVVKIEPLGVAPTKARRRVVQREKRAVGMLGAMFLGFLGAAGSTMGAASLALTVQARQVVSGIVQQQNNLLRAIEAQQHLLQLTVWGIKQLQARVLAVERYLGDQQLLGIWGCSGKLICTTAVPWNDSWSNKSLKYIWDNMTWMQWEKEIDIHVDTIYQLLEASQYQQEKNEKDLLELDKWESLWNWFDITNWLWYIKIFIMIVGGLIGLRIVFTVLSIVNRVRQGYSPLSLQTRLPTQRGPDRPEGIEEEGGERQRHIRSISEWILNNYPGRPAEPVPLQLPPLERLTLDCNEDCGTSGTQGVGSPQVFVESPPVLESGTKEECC

This assay has as its target Envelope glycoprotein gp160 (Human immunodeficiency virus 1, UniProt Q6QLK5). Kind of assay: inhibitors of HIV fusion peptide binding, primary screen, biochemical, uHTS, fluorescence dequenching (AID 1986).
Consider `CC(C)c1ccc(OCC(=O)Nc2cccc(C(=O)Nc3ccccc3C(=O)O)c2)cc1`, for which the IC50 was 16.9 µM (active). In the case of `O=C(O)c1ccc(Cl)c(S(=O)(=O)Nc2ccccc2C(=O)Nc2ccc(Cl)cc2)c1`, the half-maximal inhibitory concentration (IC50) was 17.9 µM (active).

Consider `C/C(=N\Nc1ccc(C(=O)O)cc1)c1ccc2c(c1)Nc1ccccc1S2`, for which the half-inhibitory concentration (IC50) is 15.4 µM (active). Consider `COc1cc(/C=C2\SC(=O)N(Cc3ccc(F)cc3)C2=O)cc([N+](=O)[O-])c1O`, for which the IC50 was 19.7 µM (active). The value for `Cc1cccc(OCC(=O)Nc2ccc(C(=O)Nc3ccccc3C(=O)O)cc2)c1C` was 28.3 µM (active).
